{"source": "patent US8680095B2", "about": "“Heterocycle compounds and uses thereof for the prevention or treatment of diseases involving formation of amyloid plaques and/or where a dysfunction of the APP metabolism occurs” (Institut National de la Sante et de la Recherche Medicale …, priority 2009, dated 2014)", "key": {"[1]": {"tested_on": "β-amyloid 1-42", "experiment": "Innotest β-amyloid 1-42 ELISA on SY5Y culture medium", "assay_type": "cell-based", "settings": "Homo sapiens, 24 h, compared to a control with a value of 100, read-out: Aβ 1 μM*", "protocol": "(§1) The human neuroblastoma cell line SKNSH-SY5Y APP^wt is cultured in Dulbecco's modified Eagle medium (Invitrogen) supplemented with 10% fetal calf serum (PAA), 2 mM L-glutamine (Invitrogen), 1 mM non-essential amino acids (Invitrogen), 50 units/ml penicillin/streptomycin (Invitrogen) and 200 μg geneticin (G418; Invitrogen) (selection for cell expressing APP) in a 5% CO2 humidified incubator at 37° C. Cells are seeded into 96-wells plates (20000 cells/well) for cytotoxicity assay and 12-wells plate (300000 cells/well) for western blotting for 18 h.\n(§2) For western blotting, cells are incubated with 700 μl/well of each product at 10; 3; 1 and 0.31 μM in a 5% CO2 incubator at 37° C. for 24 h. The following day, culture medium samples are collected for ELISA assay and stored at −80° C. Cells are rinsed very slowly with cold PBS, snap-frozen on dry ice and immediately stored at −80° C.\nThe β-amyloid 1-42 rate is quantified in SY5Y cells-culture medium by using the Innotest β-amyloid 1-42 (80324 Innogenetics®) according to the manufacturer instructions. Briefly, Fresh culture medium is used to dilute the standard. Culture samples are centrifuged at 200 g at 4° C. during 5 minutes in order to eliminate cell fragments.\nFirst, 75 μl of the conjugate working solution1 (3D6 biotinylated antibody) is added to a 21F12 Ab precoated well. Twenty five μl of pure supernatant samples are then added to the coated well, and incubated for 1 h. Then the plate is washed 5 times with the washing buffer. Then 100 μl of peroxidase-labeled streptavidin (conjugate working solution 2) is added and incubated for 30 min at RT. After washing the plate 5 times, 100 μl of tetramethyl benzidine (substrate working solution) is added onto the plate and incubated for 30 minutes in the dark. The reaction is stopped with 50 μl 0.9N sulfuric acid (stop solution). The absorbance is read at 450 nm.\nA sigmoidal curve fitting (four parameter […] curve) is used to calculate the standard curve. The corresponding concentration of β-amyloid (1-42) in pg/ml is determined from the standard curve. Results are expressed in concentration of β-amyloid in pg per μg of total proteins. Graphs and statistic analyses (t Test) are performed with Graph Pad Prism computer program (V0.5)."}, "[2]": {"tested_on": "APP-CTFs (CTFα, AICD) in SKNSH-SY5Y APPwt cells", "experiment": "Western blotting of APP carboxy-terminal fragments (CTFα, AICD) in treated cells", "assay_type": "cell-based", "settings": "Homo sapiens, 24 h", "protocol": "as §1, §2\nCells in twelve-well plates are collected in 50 μl Laemmli Lysis Buffer (pH 6.8, 50 mM Tris Base, 2% SDS, 20% Glycerol, 1 mM sodium pyrophosphate, 1 mM sodium orthovanadate and Protease Inhibitor Cocktail Complete Mini-Roche) per well. Cells are scrapped and lysates sonicated for 5 min.\nProtein content is determined using the BCA Method (Pierce). Samples containing equal amounts of protein (35 μg total protein for mice and 20 μg total protein for cells per well) are heated at 85° C. for 2 min after thawing and electrophoresed for 2.45 h at 125 V in a 16% Tricine precast gels according to the protocol supplied with the NuPAGE system (Invitrogen). After size fractionation, the proteins are transferred onto nitrocellulose 0.2 μm pore-size membranes (Invitrogen) in the blot module of the NuPAGE sytem for 1 h at room temperature (RT). Blots are blocked for 1 h in TNT with 0.05% Tween 20 and 5% nonfat milk at RT, incubated overnight at 4° C. with anti-C term APP C1:3-2429 (1:250000) primary antibody and washed four times with TNT before being exposed to peroxidase labeled anti-mouse IgG (H+L) C4 94010 (1:50000; Vector) secondary antibody for […] at 25° C. The immunoreactions are detected with SuperSignal West Pico Chemiluminescent Substrate (Thermo specific, 34077). Images are scanned with LAS-3000 Image System (Global FUJIFILM) and bands quantified by ImageJ 1.37v computer program. The different APP-CTF bands are detected as a function of their molecular mass, as described in Vingtdeux, V., Hamdane, M., Gompel, M. et al. (2005) Phosphorylation of amyloid precursor carboxy-terminal fragments enhances their processing by a gamma-secretase-dependent mechanism. Neurobiol Dis, 20, 625-637. Graphs and statistical analysis of results is performed with Graph Pad Prism (version 4.02) computer program."}, "[3]": {"experiment": "Cytotoxicity CC50 on MRC-5", "assay_type": "cell-based", "settings": "human, MRC-5 cells"}, "[4]": {"tested_on": "APP-CTFα", "experiment": "In vivo mice treatment, western blotting of APP-CTFs in prefrontal cortex", "settings": "C57Bl6 female mice, 12.5, 25, 50 mg/kg intraperitoneally once, prefrontal cortex 24 h after, versus vehicle", "protocol": "Test molecules are intraperitoneally injected to 4 month old C57BI6 females mice either at 12.5; 25; 50 mg/kg or vehicule once, and sacrificed 24 h after by decapitation. Brain is immediately removed and Prefrontal Cortex is dissected by using a cold zinc brain matrix. The total dissection time was <3 min from decapitation. Following dissection tissue is frozen in dry ice and then stored at −80° C. for western blotting.\nProtein extracts of Prefrontal Cortex samples are prepared in 50 μl Laemmli Lysis Buffer (pH 6.8, 50 mM Tris Base, 2% SDS, 20% Glycerol, 1 mM sodium pyrophosphate, 1 mM sodium orthovanadate and Protease Inhibitor Cocktail Complete Mini-Roche) by trituration of the fragments in a 0.2 ml glass micro tissue grinder. […]\nProtein content is determined using the BCA Method (Pierce). […] The immunoreactions are detected with SuperSignal West Pico Chemiluminescent Substrate (Thermo specific, 34077). Images are scanned with LAS-3000 Image System (Global FUJIFILM) and bands quantified by ImageJ 1.37v computer program. The different APP-CTF bands are detected as a function of their molecular mass, as described in Vingtdeux, V., Hamdane, M., Gompel, M. et al. (2005) Phosphorylation of amyloid precursor carboxy-terminal fragments enhances their processing by a gamma-secretase-dependent mechanism. […]"}, "[5]": {"settings": "compared to a control with a value of 100, read-out: CTFα 1 μM*"}, "[6]": {"settings": "AICD, compared to a control with a value of 100, read-out: AlCD 1 μM*"}}, "note": "Where two headings read alike, the source gives them in different places."}
{"smiles": "CN1CCN(c2cc(O)cc(Nc3ccnc4cc(Cl)ccc34)c2)CC1", "note": "[compound 72, 3-[(7-chloroquinolin-4-yl)amino]-5-(4-methyl-piperazin-1-yl)phenol]", "values": [{"measurement": "activity at 1 µM", "setting": "[1]", "value": 100, "unit": "%"}, {"measurement": "activity at 1 µM", "setting": "[2]; [5]", "value": 105, "unit": "%"}, {"measurement": "activity at 1 µM", "setting": "[2]; [6]", "value": 80, "unit": "%"}]}
{"smiles": "CN1CCN(c2cc(Nc3ccnc4cc(Cl)ccc34)cc(N3CCN(C)CC3)c2)CC1", "note": "[compound 70, N-[3,5-bis(4-methylpiperazin-1-yl)phenyl]-7-chloroquinolin-4-amine]", "values": [{"measurement": "activity at 1 µM", "setting": "[2]; [5]", "value": 687, "unit": "%"}, {"measurement": "activity at 1 µM", "setting": "[2]; [6]", "value": 515, "unit": "%"}]}
{"smiles": "CCN(CC)Cc1cc(Nc2ccnc3cc(Cl)ccc23)ccc1F", "note": "[compound 84, 7-chloro-N-(3-((diethylamino)methyl)-4-fluorophenyl)quinolin-4-amine]", "values": [{"measurement": "CC50", "setting": "[3]", "value": "< 10", "unit": "µM"}, {"measurement": "activity at 1 µM", "setting": "[2]; [5]", "value": 358, "unit": "%"}, {"measurement": "activity at 1 µM", "setting": "[2]; [6]", "value": 209, "unit": "%"}]}
{"smiles": "CN1CCN(c2ccc(Nc3ccnc4cc(Cl)ccc34)cc2CNC(C)(C)C)CC1", "note": "[compound 56, N-{3-[(tert-butylamino)methyl]-4-(4-methylpiperazin-1-yl)phenyl}-7-chloroquinolin-4-amine]", "values": [{"measurement": "activity at 1 µM", "setting": "[1]", "value": 45, "unit": "%"}, {"measurement": "activity at 1 µM", "setting": "[2]; [5]", "value": 183, "unit": "%"}, {"measurement": "activity at 1 µM", "setting": "[2]; [6]", "value": 823, "unit": "%"}]}
{"smiles": "N#Cc1cc(/N=c2\\ccn(CCN3CCCCC3)c3cc(Cl)ccc23)cc(NCCN2CCCCC2)c1", "note": "[compound 76, 3-({7-Chloro-1-[2-(piperidin-1-yl)ethyl]-1,4-dihydroquinolin-4-ylidene}amino)-5-{[2-(piperidin-1-yl)ethyl]amino}benzonitrile]", "values": [{"measurement": "activity at 1 µM", "setting": "[1]", "value": 76, "unit": "%"}]}
{"smiles": "CN(C)CCCN1CCN(C(=O)c2cc(Nc3ccnc4cc(Cl)ccc34)cc(C(=O)N3CCN(CCCN(C)C)CC3)c2)CC1", "note": "[compound 64, N-[3,5-Bis({4-[3-(dimethylamino)propyl]piperazin-1-yl}carbonyl)phenyl]-7-chloroquinolin-4-amine]", "values": [{"measurement": "activity at 1 µM", "setting": "[1]", "value": 31, "unit": "%"}, {"measurement": "activity at 1 µM", "setting": "[2]; [5]", "value": 106, "unit": "%"}, {"measurement": "activity at 1 µM", "setting": "[2]; [6]", "value": 669, "unit": "%"}]}
{"smiles": "Cc1cc(Nc2ccnc3cc(Cl)ccc23)cc(CN2CCCC2)c1N1CCN(C)CC1", "note": "[compound 59, 7-Chloro-N-[3-methyl-4-(4-methylpiperazin-1-yl)-5-(pyrrolidin-1-ylmethyl)phenyl]quinolin-4-amine]", "values": [{"measurement": "activity at 1 µM", "setting": "[1]", "value": 73, "unit": "%"}, {"measurement": "activity at 1 µM", "setting": "[2]; [5]", "value": 629, "unit": "%"}, {"measurement": "activity at 1 µM", "setting": "[2]; [6]", "value": 325, "unit": "%"}]}
{"smiles": "N#Cc1cc(NCCN2CCCCC2)cc(Nc2ccnc3cc(Cl)ccc23)c1", "note": "[compound 77, 3-[(7-chloroquinolin-4-yl)amino]-5-{[2-(piperidin-1-yl)ethyl]amino}benzonitrile]", "values": [{"measurement": "activity at 1 µM", "setting": "[1]", "value": 85, "unit": "%"}, {"measurement": "activity at 1 µM", "setting": "[2]; [6]", "value": 618, "unit": "%"}]}
{"smiles": "Oc1c(CN2CCCC2)cc(Nc2ccnc3cc(Cl)ccc23)cc1CN1CCCC1", "note": "[compound 66, 4-[(7-Chloroquinolin-4-yl)amino]-2,6-bis (pyrrolidin-1-ylmethyl)phenol]", "values": [{"measurement": "activity at 1 µM", "setting": "[1]", "value": 19, "unit": "%"}, {"measurement": "activity at 1 µM", "setting": "[2]; [5]", "value": 754, "unit": "%"}, {"measurement": "activity at 1 µM", "setting": "[2]; [6]", "value": 886, "unit": "%"}, {"measurement": "production of APP-CTFα (optical density, FIG. 1)", "setting": "[4]", "value": "increases the production of APP-CTFα"}]}
{"smiles": "N#Cc1cc(N)cc(Nc2cc[n+](CCN3CCCCC3)c3cc(Cl)ccc23)c1", "note": "[compound 74, 4-[(3-amino-5-cyanophenyl)amino]-7-chloro-1-[2-(piperidin-1-yl)ethyl]quinolin-1-ium chloride]", "values": [{"measurement": "activity at 1 µM", "setting": "[1]", "value": 44, "unit": "%"}]}
{"smiles": "Clc1ccc2c(Nc3ccc(N4CCOCC4)c(CN4CCCC4)c3)ccnc2c1", "note": "[compound 86, 7-chloro-N-[4-(morpholin-4-yl)-3-(pyrrolidin-1-ylmethyl)phenyl]quinolin-4-amine]", "values": [{"measurement": "melting point", "value": "187 to 188", "unit": "°C"}]}
{"smiles": "COC(=O)c1cc(Nc2ccnc3cc(Cl)ccc23)cc(C(=O)N2CCN(CCCN(C)C)CC2)c1", "note": "[compound 69, Methyl 3-[(7-chloroquinolin-4-yl)amino]-5-({4-[3-(dimethylamino)propyl]piperazin-1-yl}carbonyl)benzoate]", "values": [{"measurement": "activity at 1 µM", "setting": "[1]", "value": 46, "unit": "%"}, {"measurement": "activity at 1 µM", "setting": "[2]; [5]", "value": 126, "unit": "%"}, {"measurement": "activity at 1 µM", "setting": "[2]; [6]", "value": 302, "unit": "%"}]}
{"smiles": "CN1CCN(c2ccc(Nc3ccnc4cc(Cl)ccc34)cc2CN2CCOCC2)CC1", "note": "[compound 57, 7-chloro-N-[4-(4-methylpiperazin-1-yl)-3-(morpholin-4-ylmethyl)phenyl]quinolin-4-amine]", "values": [{"measurement": "activity at 1 µM", "setting": "[1]", "value": 19, "unit": "%"}, {"measurement": "activity at 1 µM", "setting": "[2]; [5]", "value": 194, "unit": "%"}, {"measurement": "activity at 1 µM", "setting": "[2]; [6]", "value": 757, "unit": "%"}]}
